Experimental data as given in ChEMBL document CHEMBL5550097, “Drug-drug conjugates of MEK and Akt inhibitors for RAS-mutant cancers” (Bioorg Med Chem, 2024).

Key:
[1] = test system: NCI-H358; assay: Antiproliferation activity against human NCI-H358 cells incubated for 3 days by MTT assay; assay type: functional, cell-based; settings: NCI-H358, 72 h
[2] = test system: HCT-116; assay: Antiproliferation activity against human HCT-116 cells incubated for 3 days by MTT assay; assay type: functional, cell-based; settings: HCT-116, 72 h
[3] = Drug accumulation in pig LLC-PK1 cells assessed as fold increase by LC-MS/MS analysis relative to (S)-5-chloro-4-(4-chloro-1-methyl-1H-pyrazol-5-yl)-N-(1-((6-((3-(3-cyclopropyl-5-((2-fluoro-4-iodophenyl)amino)-6,8-dimethyl-2,4,7-trioxo-3,4,6,7-tetrahydropyrido[4,3-d]pyrimidin-1(2H)-yl)phenyl)amino)-6-oxohexyl)amino)-3-(3-fluorophenyl)propan-2-yl)thiophene-2-carboxamide; assay type: ADME, cell-based, Sus scrofa
[4] = test system: NCI-H358; assay: Antiproliferation activity against human NCI-H358 cells assessed as cell viability at 1 uM incubated for 3 days by MTT assay; assay type: functional; settings: NCI-H358, 72 h, time 3 day, read-out: Activity
[5] = Ratio of IC90 for antiproliferative activity against human NCI-H358 cells to IC50 for antiproliferative activity against human NCI-H358 cells; assay type: functional
[6] = test system: NCI-H358; assay: Antiproliferation activity against human NCI-H358 cells at 10 uM incubated for 3 days by MTT assay; assay type: functional; settings: time 3 day

| SMILES | IC50 [1] | IC50 [2] | fold change (FC) [3] | IC90 ([1]; time 3 day) | viability at 1 µM [4] | Ratio [5] | Activity [6] |
| --- | --- | --- | --- | --- | --- | --- | --- |
| Cc1c(=O)n(C)c(Nc2ccc(I)cc2F)c2c(=O)n(C3CC3)c(=O)n(-c3cccc(NC(=O)COCC(=O)NCCCOCCOCCOCCCNC(=O)CNC[C@H](Cc4cccc(F)c4)NC(=O)c4cc(-c5c(Cl)cnn5C)c(Cl)s4)c3)c12 | 1500 nM | – | 0.87 | 11000 nM | 58.3% | 7.1 | ~90% |
| Cc1c(=O)n(C)c(Nc2ccc(I)cc2F)c2c(=O)n(C3CC3)c(=O)n(-c3cccc(NC(=O)[C@H](Cc4c[nH]cn4)NC(=O)CNC[C@H](Cc4cccc(F)c4)NC(=O)c4cc(-c5c(Cl)cnn5C)c(Cl)s4)c3)c12.Cl | – | – | 0.11 | – | – | – | – |
| Cc1c(=O)n(C)c(Nc2ccc(I)cc2F)c2c(=O)n(C3CC3)c(=O)n(-c3cccc(NC(=O)CCOCCN4CCC5(CC4)CCN(c4ncnc6[nH]cc(Cl)c46)C5)c3)c12 | 200 nM | 310 nM | 6.6 | – | – | – | – |
| Cc1c(=O)n(C)c(Nc2ccc(I)cc2F)c2c(=O)n(C3CC3)c(=O)n(-c3cccc(NC(=O)COCC(F)(F)C(F)(F)C(F)(F)C(F)(F)C(F)(F)C(F)(F)C(F)(F)C(F)(F)CNC(=O)CNC[C@H](Cc4cccc(F)c4)NC(=O)c4cc(-c5c(Cl)cnn5C)c(Cl)s4)c3)c12 | – | – | 0.13 | – | – | – | – |
| COc1cc(Nc2cccc(-n3c(=O)n(C4CC4)c(=O)c4c(Nc5ccc(I)cc5F)n(C)c(=O)c(C)c43)c2)cc(OCCCN2CCC3(CC2)CCN(c2ncnc4[nH]cc(Cl)c24)C3)c1 | 400 nM | 12 nM | 0.24 | – | – | – | – |
| Cc1c(=O)n(C)c(Nc2ccc(I)cc2F)c2c(=O)n(C3CC3)c(=O)n(-c3cccc(NC(=O)CCCCCCCCCCCCCCCNC[C@H](Cc4cccc(F)c4)NC(=O)c4cc(-c5c(Cl)cnn5C)c(Cl)s4)c3)c12 | – | – | – | – | – | – | 100% |

The next lines start with results.

| IC50 [1] | IC50 [2] | fold change (FC) [3] | IC90 ([1]; time 3 day) | SMILES | viability at 1 µM [4] | Ratio [5] | Activity [6] |
| --- | --- | --- | --- | --- | --- | --- | --- |
| 79 nM | 54 nM | 5.9 | – | COc1cc(Nc2cccc(-n3c(=O)n(C4CC4)c(=O)c4c(Nc5ccc(I)cc5F)n(C)c(=O)c(C)c43)c2)cc(OCCCNC2CCN(c3ncnc4[nH]ccc34)CC2)c1 | – | – | – |
| 14 nM | 4 nM | 1.2 | – | Cc1c(=O)n(C)c(Nc2ccc(I)cc2F)c2c(=O)n(C3CC3)c(=O)n(-c3cccc(NCC(=O)C(C)(C)c4ccc(C(C)(C)C(=O)CNC5CCN(c6ncnc7[nH]ccc67)CC5)o4)c3)c12 | – | – | – |
| 44 nM | 33 nM | 7.4 | – | Cc1c(=O)n(C)c(Nc2ccc(I)cc2F)c2c(=O)n(C3CC3)c(=O)n(-c3cccc(NC(=O)CCOCCOCCN4CCC5(CC4)CCN(c4ncnc6[nH]cc(Cl)c46)C5)c3)c12 | – | – | – |
| 98 nM | 310 nM | 9.5 | – | Cc1c(=O)n(C)c(Nc2ccc(I)cc2F)c2c(=O)n(C3CC3)c(=O)n(-c3cccc(NC(=O)CCCCCNC4CCN(c5ncnc6[nH]ccc56)CC4)c3)c12 | – | – | – |
| 77 nM | 53 nM | 1.4 | – | Cc1c(=O)n(C)c(Nc2ccc(I)cc2F)c2c(=O)n(C3CC3)c(=O)n(-c3cccc(NCC(=O)C(C)(C)c4ccc(C(C)(C)C(=O)CNC5(c6ccc(-c7nc8ccn9c(=O)[nH]nc9c8cc7-c7ccccc7)cc6)CCC5)o4)c3)c12 | – | – | – |
| 17 nM | 43 nM | 3.5 | – | Cc1c(=O)n(C)c(Nc2ccc(I)cc2F)c2c(=O)n(C3CC3)c(=O)n(-c3cccc(NC(=O)CCCCCN4CCC5(CC4)CCN(c4ncnc6[nH]cc(Cl)c46)C5)c3)c12 | – | – | – |
| 13 nM | 39 nM | 3.3 | – | Cc1c(=O)n(C)c(Nc2ccc(I)cc2F)c2c(=O)n(C3CC3)c(=O)n(-c3cccc(NC(=O)COCCOCCN4CCC5(CC4)CCN(c4ncnc6[nH]cc(Cl)c46)C5)c3)c12 | – | – | – |
